Tested on: Normal human epidermal keratinocytes (NHEK(F))
Assay: Verification of ceramide production enhancing effect (Test Example 2 and Reference Example)
Format: cell-based
Description: Normal human epidermal keratinocytes (trade name: NHEK(F), manufactured by Kurabo Industries, Ltd.) were cultured under the conditions of 37° C. and 5% CO2, in a culture fluid (trade name: EpiLife-KG2, manufactured by Kurabo Industries, Ltd.) using a culture plate.
Thereafter, the culture fluid was exchanged with EpiLife-KG2 from which growth factors such as epidermal growth factor had been eliminated, and a solution in which concentration of toosendanin was adjusted to 1 mM (574 ppm), or a control solution (50% ethanol) was added to the culture fluid in an amount of 0.01%.
The cells were cultured for 3 days, and then the respective cells were collected from each well.
An organic phase obtained by extracting lipids from the collected cells by the Blight and Dyer method, was transferred into a glass tube, and was dried to solid in nitrogen stream. Subsequently, the dried product was redissolved in chloroform and methanol, and this was used as a lipid sample.
Further, 0.1N NaOH and a 1% aqueous SDS solution were added to the cells from which lipids had been extracted, and the mixture was heated at 60° C. for 2 hours to thereby solubilize proteins. The mixture was cooled to room temperature, and then 2N HCl was added for neutralization. The amount of proteins was quantified by the BCA method. […]

## CC(=O)O[C@@H]1C[C@H](O)[C@@]23CO[C@@H](O)[C@]1(C)[C@@H]2C[C@@H](O)[C@]1(C)[C@@H]3C(=O)[C@H](OC(C)=O)[C@@]2(C)[C@H](c3ccoc3)C[C@H]3O[C@]321 [Toosendanin, toosendanin]
Concentration for verification 57.4 ppb, cells cultured 3 days, TLC detection, control 50% ethanol
  Amount of ceramide production (Amount of ceramide production of control solution-added group = 1): 1.22
toosendanin-added system, 57.4 ppb, Table 2
  amount of ceramide production as compared to the control system (in words): an increase in the amount of ceramide production was recognized

From patent US9445987B2, “Ceramide production enhancer and moisturizer” (Kao Corporation, priority 2009, dated 2016)
